“And” between values parts separate entries of the source, which are not always exact repeats. Equal entries are not always repeated. Toxic doses and inconclusive results are not listed.
Tested on: BDF1 mice, P388 leukemia ip, median survival T/C
Assay: NCI In Vivo Anticancer Drug Screen. Data for tumor model P388 Leukemia (intraperitoneal) in B6D2F1 (BDF1) mice
Conditions: endpoint: median survival time, higher = longer survival
Summary of the method: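 Survival ratio, drug arm over vehicle arm, in mice with a transplanted tumour.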

[1] = dose: 25.0 mg/kg/injection, schedule: Q04DX003 (ip), vehicle: saline with Tween-80
[2] = dose: 50.0 mg/kg/injection, schedule: Q04DX003 (ip), vehicle: saline with Tween-80
[3] = dose: 100.0 mg/kg/injection, schedule: Q04DX003 (ip), vehicle: saline with Tween-80
[4] = dose: 25.0 mg/kg/injection, schedule: Q01DX009 (ip), vehicle: saline
[5] = dose: 50.0 mg/kg/injection, schedule: Q01DX009 (ip), vehicle: saline
[6] = dose: 6.25 mg/kg/injection, schedule: Q01DX009 (ip), vehicle: saline with Tween-80
[7] = dose: 12.5 mg/kg/injection, schedule: Q04DX003 (ip), vehicle: saline with Tween-80
[8] = dose: 100.0 mg/kg/injection, schedule: Q01DX009 (ip), vehicle: saline
[9] = dose: 200.0 mg/kg/injection, schedule: Q01DX009 (ip), vehicle: saline
[10] = dose: 12.5 mg/kg/injection, schedule: Q01DX009 (ip), vehicle: saline with Tween-80
[11] = dose: 25.0 mg/kg/injection, schedule: Q01DX009 (ip), vehicle: saline with Tween-80
[12] = dose: 50.0 mg/kg/injection, schedule: Q01DX009 (ip), vehicle: saline with Tween-80
[13] = dose: 6.25 mg/kg/injection, schedule: Q04DX003 (ip), vehicle: saline with Tween-80
[14] = dose: 100.0 mg/kg/injection, schedule: Q01DX009 (ip), vehicle: saline with Tween-80
[15] = dose: 200.0 mg/kg/injection, schedule: Q01DX009 (ip), vehicle: saline with Tween-80
[16] = dose: 200.0 mg/kg/injection, schedule: Q04DX003 (ip), vehicle: saline with Tween-80
[17] = dose: 400.0 mg/kg/injection, schedule: Q01DX009 (ip), vehicle: saline with Tween-80
[18] = dose: 400.0 mg/kg/injection, schedule: Q04DX003 (ip), vehicle: saline with Tween-80
[19] = dose: 50.0 mg/kg/injection, schedule: Q04DX003 (ip), vehicle: saline
[20] = dose: 100.0 mg/kg/injection, schedule: Q04DX003 (ip), vehicle: saline
[21] = dose: 200.0 mg/kg/injection, schedule: Q04DX003 (ip), vehicle: saline

Question: What does the source list for `CCC(C)(OC(C)=O)C(=O)OC1C(=O)OC2CC3C(C)=CC(=O)C(O)C3(C)C3C(O)C(O)C4(C)OCC23C14` (stereo unspecified)?
Answer: T/C (dose: 0.01 mg/kg/injection, schedule: Q01DX009 (ip), vehicle: saline + alcohol): 104 % of control; T/C (dose: 0.06 mg/kg/injection, schedule: Q01DX009 (ip), vehicle: saline + alcohol): 180 % of control; T/C (dose: 0.1 mg/kg/injection, schedule: Q01DX009 (ip), vehicle: saline + alcohol): 161 % of control; T/C (dose: 0.12 mg/kg/injection, schedule: Q01DX009 (ip), vehicle: saline + alcohol): 109 % of control; T/C (dose: 0.38 mg/kg/injection, schedule: Q01DX009 (ip), vehicle: saline + alcohol): 168 % of control; T/C (dose: 0.75 mg/kg/injection, schedule: Q01DX009 (ip), vehicle: saline + alcohol): 161 % of control; T/C (dose: 2.0 mg/kg/injection, schedule: Q01DX009 (ip), vehicle: saline + alcohol): 173 % of control; T/C (dose: 3.0 mg/kg/injection, schedule: Q01DX009 (ip), vehicle: saline + alcohol): 171 % of control

Question: What does the source list for `O=C(O)c1ccc(Cl)cc1Nc1ccc(Cl)cc1`?
Answer: T/C [1]: 120 % of control; T/C [2]: 100 % of control; T/C [3]: 100 % of control

Question: What does the source list for `Cc1c[n+]2ccccc2n1C`?
Answer: T/C [4]: 100 % of control; T/C [5]: 104 % of control

Question: For `CC(=O)C(c1ccccc1)[N+](C)(C)C` (stereo unspecified), which T/C (dose: 100.0 mg/kg/injection, schedule: Q04DX003 (ip), vehicle: other) is on record?
Answer: 108 % of control

Question: Which results are given for `O=C(Nc1nc(Cl)nc(Cl)n1)N1CCOCC1`?
Answer: T/C [6]: 104 % of control; T/C (dose: 9.0 mg/kg/injection, schedule: Q01DX009 (ip), vehicle: saline with Tween-80): 103 % of control; T/C (dose: 12.0 mg/kg/injection, schedule: Q01DX009 (ip), vehicle: saline with Tween-80): 112 % of control; T/C [7]: 118 % of control; T/C (dose: 18.0 mg/kg/injection, schedule: Q01DX009 (ip), vehicle: saline with Tween-80): 112 % of control; T/C [1]: 109 % of control

Question: Which results are given for `C[Si](C)(C)OC/C=C\CO[Si](C)(C)C`?
Answer: T/C [8]: 100 % of control; T/C [9]: 108 % of control; T/C (dose: 400.0 mg/kg/injection, schedule: Q01DX009 (ip), vehicle: saline): 108 % of control

Question: Which T/C [6] does the source give for `O=C1CCS(=O)(=O)c2ccccc21` here?
Answer: 101 % of control

Question: And the T/C [10]?
Answer: 117 % of control

Question: What about the T/C [11] of the same compound?
Answer: 105 % of control

Question: What about the T/C [12] of the same compound?
Answer: 98 % of control

Question: How did the T/C (dose: 100.0 mg/kg/injection, schedule: Q01DX001 (ip), vehicle: suspension in saline) turn out when `CSc1nc2n(C)cc(C)cc-2c(=O)n1` was run?
Answer: 90 % of control

Question: Which results are given for `CCCCOc1ccc(C(=O)NN)cc1`?
Answer: T/C [6]: 118 % of control; T/C [13]: 100 % of control; T/C [10]: 108 % of control; T/C [7]: 91 % of control and 92 % of control; T/C [11]: 99 % of control; T/C [1]: 90 % of control and 106 % of control; T/C [12]: 115 % of control; T/C [2]: 97 % of control and 98 % of control; T/C [14]: 97 % of control

Question: With `S=c1cc(-c2ccco2)ss1` as the compound, how does the T/C [11] read?
Answer: 112 % of control

Question: What about the T/C [12] of the same compound?
Answer: 95 % of control

Question: And the T/C [14]?
Answer: 98 % of control

Question: And the T/C [3]?
Answer: 110 % of control

Question: And the T/C [15]?
Answer: 102 % of control

Question: What about the T/C [16] of the same compound?
Answer: 100 % of control

Question: And the T/C [17]?
Answer: 107 % of control

Question: And the T/C [18]?
Answer: 101 % of control

Question: Which results are given for `C[C@]12[C@@H]3CC(=O)C[C@@]1(CC[C@@H]1[C@@H]2CC[C@]2(C)OC(=O)CC[C@@H]12)SS3`?
Answer: T/C [14]: 100 % of control; T/C [3]: 104 % of control; T/C [15]: 91 % of control; T/C [16]: 90 % of control; T/C [17]: 95 % of control; T/C [18]: 90 % of control

Question: What does the source list for `COc1ccc(C=[N+](C)CCc2ccc(OC)c(OC)c2)cc1OC`?
Answer: T/C [4]: 95 % of control; T/C [5]: 101 % of control; T/C [19]: 106 % of control; T/C [8]: 100 % of control; T/C [20]: 102 % of control; T/C [9]: 116 % of control; T/C [21]: 100 % of control; T/C (dose: 400.0 mg/kg/injection, schedule: Q04DX003 (ip), vehicle: saline): 106 % of control

Question: What does the source list for `O=C(NOCc1cc2c(cc1Cl)OCO2)c1ccc(S(=O)(=O)F)cc1`?
Answer: T/C (dose: 100.0 mg/kg/injection, schedule: Q01DX001 (ip), vehicle: saline sonified): 104 % of control; T/C (dose: 200.0 mg/kg/injection, schedule: Q01DX001 (ip), vehicle: saline sonified): 86 % of control; T/C (dose: 400.0 mg/kg/injection, schedule: Q01DX001 (ip), vehicle: saline sonified): 86 % of control

Question: How did the T/C (dose: 50.0 mg/kg/injection, schedule: Q01DX009 (ip), vehicle: Klucel (hydroxypropylcellulose) (HPC)) turn out when `CNC(=O)OCc1c(COC(=O)NC)c(-c2ccc(Cl)cc2)n2c1CCC2` was run?
Answer: 96 % of control

Question: Which T/C (dose: 65.0 mg/kg/injection, schedule: Q01DX009 (ip), vehicle: Klucel (hydroxypropylcellulose) (HPC)) does the source give for `Cc1ccc(/C=C2\CC(C)(C)c3ccccc3C2=O)cc1` here?
Answer: 90 % of control

Question: What about the T/C (dose: 100.0 mg/kg/injection, schedule: Q01DX009 (ip), vehicle: Klucel (hydroxypropylcellulose) (HPC)) of the same compound?
Answer: 87 % of control and 95 % of control

Question: And the T/C (dose: 400.0 mg/kg/injection, schedule: Q01DX009 (ip), vehicle: Klucel (hydroxypropylcellulose) (HPC))?
Answer: 100 % of control

Question: Which T/C (dose: 12.5 mg/kg/injection, schedule: Q01DX010 (ip), vehicle: carboxymethylcellulose (CMC)) does the source give for `Oc1ccc(F)c2cccnc12` here?
Answer: 100 % of control

Question: What about the T/C (dose: 25.0 mg/kg/injection, schedule: Q01DX010 (ip), vehicle: carboxymethylcellulose (CMC)) of the same compound?
Answer: 105 % of control

Question: What about the T/C (dose: 50.0 mg/kg/injection, schedule: Q01DX010 (ip), vehicle: carboxymethylcellulose (CMC)) of the same compound?
Answer: 100 % of control

Question: How did the T/C (dose: 50.0 mg/kg/injection, schedule: Q01DX001 (ip), vehicle: Klucel (hydroxypropylcellulose) (HPC)) turn out when `O=C(CBr)NCC1OC(n2cnc3c(=O)[nH]cnc32)C(O)C1O` (stereo unspecified) was run?
Answer: 109 % of control

Question: What about the T/C (dose: 100.0 mg/kg/injection, schedule: Q01DX001 (ip), vehicle: Klucel (hydroxypropylcellulose) (HPC)) of the same compound?
Answer: 101 % of control

Question: And the T/C (dose: 200.0 mg/kg/injection, schedule: Q01DX001 (ip), vehicle: Klucel (hydroxypropylcellulose) (HPC))?
Answer: 106 % of control

Question: Which T/C (dose: 25.0 mg/kg/injection, schedule: Q04DX002 (ip), vehicle: saline with Tween-80) does the source give for `OC1(c2ccncc2)C=CCC1` (stereo unspecified) here?
Answer: 100 % of control

Question: And the T/C (dose: 50.0 mg/kg/injection, schedule: Q04DX002 (ip), vehicle: saline with Tween-80)?
Answer: 106 % of control

Question: And the T/C (dose: 100.0 mg/kg/injection, schedule: Q04DX002 (ip), vehicle: saline with Tween-80)?
Answer: 97 % of control

Question: What does the source list for `CCc1ccc(C(=O)NN)cc1`?
Answer: T/C (dose: 6.25 mg/kg/injection, schedule: Q01DX009 (ip), vehicle: saline): 100 % of control; T/C (dose: 12.5 mg/kg/injection, schedule: Q01DX009 (ip), vehicle: saline): 97 % of control; T/C [4]: 103 % of control; T/C (dose: 25.0 mg/kg/injection, schedule: Q04DX003 (ip), vehicle: saline): 94 % of control; T/C [5]: 100 % of control; T/C [19]: 92 % of control; T/C [8]: 124 % of control; T/C [20]: 94 % of control; T/C [9]: 90 % of control; T/C [21]: 94 % of control

Question: Which T/C (dose: 0.78 mg/kg/injection, schedule: Q01DX009 (ip), vehicle: saline with Tween-80) does the source give for `CC1(C)CN(Cc2ccccc2)C(C)(C)CN1` here?
Answer: 89 % of control

Question: What about the T/C (dose: 1.56 mg/kg/injection, schedule: Q01DX009 (ip), vehicle: saline with Tween-80) of the same compound?
Answer: 97 % of control

Question: What about the T/C (dose: 3.12 mg/kg/injection, schedule: Q01DX009 (ip), vehicle: saline with Tween-80) of the same compound?
Answer: 95 % of control

Question: And the T/C (dose: 3.12 mg/kg/injection, schedule: Q04DX003 (ip), vehicle: saline with Tween-80)?
Answer: 114 % of control

Question: What about the T/C [6] of the same compound?
Answer: 91 % of control

Question: And the T/C [13]?
Answer: 108 % of control

Question: What about the T/C [7] of the same compound?
Answer: 96 % of control

Question: And the T/C [1]?
Answer: 89 % of control

Question: Which results are given for `O=S(=O)(O)c1cc(O)c2cc(Nc3ccccc3)ccc2c1`?
Answer: T/C [19]: 104 % of control; T/C [20]: 113 % of control; T/C [21]: 109 % of control

Question: Which results are given for `C1=CC(c2ccccc2)N2C(C(c3ccccc3)=N1)C2c1ccccc1` (stereo unspecified)?
Answer: T/C [1]: 98 % of control; T/C [2]: 94 % of control; T/C [3]: 100 % of control; T/C [16]: 103 % of control

Question: Which results are given for `Cc1cccnc1NS(=O)(=O)c1ccccc1`?
Answer: T/C [3]: 100 % of control; T/C [16]: 104 % of control; T/C [18]: 108 % of control

Question: `Cc1cc(C)cc(C(O)(c2cc(C)cc(C)c2)c2cc(C)cc(C)c2)c1` was tested. Which T/C (dose: 100.0 mg/kg/injection, schedule: Q04DX003 (ip), vehicle: Klucel (hydroxypropylcellulose) (HPC)) did it give?
Answer: 100 % of control

Question: What about the T/C (dose: 200.0 mg/kg/injection, schedule: Q04DX003 (ip), vehicle: Klucel (hydroxypropylcellulose) (HPC)) of the same compound?
Answer: 90 % of control

Question: And the T/C (dose: 400.0 mg/kg/injection, schedule: Q04DX003 (ip), vehicle: Klucel (hydroxypropylcellulose) (HPC))?
Answer: 110 % of control
